“And” between values parts separate entries of the source, which are not always exact repeats. Identical values can stand only once. Like-named read-outs stand apart in the source and are kept apart here.
Columns and labels:
Assay in all cases: Chemosensitivity, 96 h continuous exposure, MTT assay
Type in all cases: cell-based, human
[1] = test system: HCT116 p53-/-; conditions: for IC50 / Selectivity indices relative to ARPE-19, Ratio + anion:no anion / Selectivity indices relative to MCF10A, Ratio + anion:no anion: HCT116 p53-/-; for Selectivity index (ARPE19): IC50 ARPE-19 / IC50 HCT116 p53-/-; for Selectivity index (MCF10A): IC50 MCF10A / IC50 HCT116 p53-/-; for Relative potency (+ anion to no anion), Ratio + anion:no anion: ratio of IC50, HCT116 p53-/-; for Selectivity indices relative to ARPE-19, Ratio + anion:no anion: ratio of SI (ARPE-19); for Selectivity indices relative to MCF10A, Ratio + anion:no anion: ratio of SI (MCF 10A)
Summary of the method: (§1)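 Growth inhibition is measured by MTT after cells are dosed for 96 h without washout. The 50% growth-reduction concentration is then interpolated from the curves.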

[2] = test system: DLD-1; conditions: for IC50 / Selectivity indices relative to ARPE-19, Ratio + anion:no anion / Selectivity indices relative to MCF10A, Ratio + anion:no anion: DLD-1; for Selectivity index (ARPE19): IC50 ARPE-19 / IC50 DLD-1; for Selectivity index (MCF10A): IC50 MCF10A / IC50 DLD-1; for Relative potency (+ anion to no anion), Ratio + anion:no anion: ratio of IC50, DLD-1; for Selectivity indices relative to ARPE-19, Ratio + anion:no anion: ratio of SI (ARPE-19); for Selectivity indices relative to MCF10A, Ratio + anion:no anion: ratio of SI (MCF 10A)
Summary of the method: as §1

[3] = test system: HCT116 p53+/+; conditions: for IC50 / Selectivity indices relative to ARPE-19, Ratio + anion:no anion / Selectivity indices relative to MCF10A, Ratio + anion:no anion: HCT116 p53+/+; for Selectivity index (ARPE19): IC50 ARPE-19 / IC50 HCT116 p53+/+; for Selectivity index (MCF10A): IC50 MCF10A / IC50 HCT116 p53+/+; for Relative potency (+ anion to no anion), Ratio + anion:no anion: ratio of IC50, HCT116 p53+/+; for Selectivity indices relative to ARPE-19, Ratio + anion:no anion: ratio of SI (ARPE-19); for Selectivity indices relative to MCF10A, Ratio + anion:no anion: ratio of SI (MCF 10A)
Summary of the method: as §1

[4] = test system: A549; conditions: for IC50 / Selectivity indices relative to ARPE-19, Ratio + anion:no anion / Selectivity indices relative to MCF10A, Ratio + anion:no anion: A549; for Selectivity index (ARPE19): IC50 ARPE-19 / IC50 A549; for Selectivity index (MCF10A): IC50 MCF10A / IC50 A549; for Relative potency (+ anion to no anion), Ratio + anion:no anion: ratio of IC50, A549; for Selectivity indices relative to ARPE-19, Ratio + anion:no anion: ratio of SI (ARPE-19); for Selectivity indices relative to MCF10A, Ratio + anion:no anion: ratio of SI (MCF 10A)
Summary of the method: as §1

[5] = mean of replicates, read-out: Mean IC50
[6] = single replicate, read-out: IC50 values for each replicate

O=S(=O)(O)O.[Zn+2].[Zn+2].[Zn+2].c1ccc(-c2csc(NCCN(CCNc3nc(-c4ccccn4)cs3)CCNc3nc(-c4ccccn4)cs3)n2)nc1.c1ccc(-c2csc(NCCN(CCNc3nc(-c4ccccn4)cs3)CCNc3nc(-c4ccccn4)cs3)n2)nc1 [[L2Zn3(SO4)]4+]
IC50 [1, 5]: 0.061 µM
IC50 ([1]; read-out: Mean IC50 values): 0.061 µM
IC50 [1, 6]: 0.059 µM and 0.064 µM and 0.061 µM
Selectivity index (ARPE19) [1]: 2774.92
Selectivity index (MCF10A) [1]: 249.64
Relative potency (+ anion to no anion), Ratio + anion:no anion [1]: 0.85
Selectivity indices relative to ARPE-19, Ratio + anion:no anion [1]: 1.271
Selectivity indices relative to MCF10A, Ratio + anion:no anion [1]: 0.111
IC50 [2, 5]: 0.338 µM
IC50 ([2]; read-out: Mean IC50 values): 0.338 µM
Selectivity index (ARPE19) [2]: 500.80
Selectivity index (MCF10A) [2]: 45.05
Relative potency (+ anion to no anion), Ratio + anion:no anion [2]: 1.99
Selectivity indices relative to ARPE-19, Ratio + anion:no anion [2]: 0.541
Selectivity indices relative to MCF10A, Ratio + anion:no anion [2]: 0.047
IC50 [3, 5]: 0.066 µM
IC50 ([3]; read-out: Mean IC50 values): 0.066 µM
IC50 [3, 6]: 0.063 µM and 0.074 µM and 0.062 µM
Selectivity index (ARPE19) [3]: 2564.70
Selectivity index (MCF10A) [3]: 230.73
Relative potency (+ anion to no anion), Ratio + anion:no anion [3]: 0.14
Selectivity indices relative to ARPE-19, Ratio + anion:no anion [3]: 7.600
Selectivity indices relative to MCF10A, Ratio + anion:no anion [3]: 0.665
IC50 [4, 5]: 0.582 µM
IC50 ([4]; read-out: Mean IC50 values): 0.582 µM
IC50 [4, 6]: 0.263 µM and 0.588 µM and 0.773 µM and 0.704 µM
Selectivity index (ARPE19) [4]: 290.84
Selectivity index (MCF10A) [4]: 26.16
Relative potency (+ anion to no anion), Ratio + anion:no anion [4]: 1.44
Selectivity indices relative to ARPE-19, Ratio + anion:no anion [4]: 0.745
Selectivity indices relative to MCF10A, Ratio + anion:no anion [4]: 0.065

O=P([O-])([O-])[O-].[Cu+2].[Cu+2].[Cu+2].c1ccc(-c2csc(NCCN(CCNc3nc(-c4ccccn4)cs3)CCNc3nc(-c4ccccn4)cs3)n2)nc1.c1ccc(-c2csc(NCCN(CCNc3nc(-c4ccccn4)cs3)CCNc3nc(-c4ccccn4)cs3)n2)nc1 [[L2Cu3(PO4)]3+]
IC50 [1, 5]: 0.388 µM
IC50 ([1]; read-out: Mean IC50 values): 0.388 µM
IC50 [1, 6]: 0.686 µM and 0.542 µM and 0.264 µM and 0.205 µM and 0.242 µM
Selectivity index (ARPE19) [1]: 422.09
Selectivity index (MCF10A) [1]: 127.27
Relative potency (+ anion to no anion), Ratio + anion:no anion [1]: 2.83
Selectivity indices relative to ARPE-19, Ratio + anion:no anion [1]: 1.099
Selectivity indices relative to MCF10A, Ratio + anion:no anion [1]: 0.361
IC50 [2, 5]: 0.637 µM
IC50 ([2]; read-out: Mean IC50 values): 0.637 µM
IC50 [2, 6]: 0.613 µM and 0.668 µM and 0.654 µM
Selectivity index (ARPE19) [2]: 257.10
Selectivity index (MCF10A) [2]: 77.52
Relative potency (+ anion to no anion), Ratio + anion:no anion [2]: 4.83
Selectivity indices relative to ARPE-19, Ratio + anion:no anion [2]: 0.645
Selectivity indices relative to MCF10A, Ratio + anion:no anion [2]: 0.212
IC50 [3, 5]: 3.39 µM
IC50 ([3]; read-out: Mean IC50 values): 3.39 µM
IC50 [3, 6]: 5.27 µM and 3.75 µM and 2.15 µM and 2.08 µM and 1.85 µM
Selectivity index (ARPE19) [3]: 48.25
Selectivity index (MCF10A) [3]: 14.55
Relative potency (+ anion to no anion), Ratio + anion:no anion [3]: 6.84
Selectivity indices relative to ARPE-19, Ratio + anion:no anion [3]: 0.455
Selectivity indices relative to MCF10A, Ratio + anion:no anion [3]: 0.150
IC50 [4, 5]: 1.22 µM
IC50 ([4]; read-out: Mean IC50 values): 1.22 µM
Selectivity index (ARPE19) [4]: 134.46
Selectivity index (MCF10A) [4]: 40.54
Relative potency (+ anion to no anion), Ratio + anion:no anion [4]: 5.23
Selectivity indices relative to ARPE-19, Ratio + anion:no anion [4]: 0.595
Selectivity indices relative to MCF10A, Ratio + anion:no anion [4]: 0.196
